These results are taken from patent US6380209B1 (dated 2002).

Structures can show the parent of a compound that is named as a salt.

One may read the melting point as the temperature of the solid-liquid transition. On to `Fc1ccc(-c2cc(NCC3CCNCC3)c3sccc3n2)cc1` (as salt: hydrochloride), for which the melting point was > 260 °C (dec.).
